The values below come from ChEMBL document CHEMBL1144566, “Synthesis, anti-tuberculosis activity, and 3D-QSAR study of 4-(adamantan-1-yl)-2-substituted quinolines” (Bioorg Med Chem, 2007).

In assay [1] the test system is Mycobacterium tuberculosis. The assay is described as follows: Antimycobacterial activity against drug-sensitive Mycobacterium tuberculosis H37Rv at 6.250 ug/mL relative to isoniazid by microplate alamar blue assay. The assay is classed as functional.
Assay [2] has as its system Mycobacterium tuberculosis. Briefly: Antimycobacterial activity against drug-sensitive Mycobacterium tuberculosis H37Rv by microplate alamar blue assay. Type of assay: functional, organism-based.
Assay [3] has as its system Mycobacterium tuberculosis. Briefly: Antimycobacterial activity against drug-sensitive Mycobacterium tuberculosis H37Rv at 3.125 ug/mL relative to isoniazid by microplate alamar blue assay. The assay is classed as functional.
Assay [4] concerns Mycobacterium tuberculosis. Briefly: Antimycobacterial activity against drug-sensitive Mycobacterium tuberculosis H37Rv at 1000 ug/mL relative to isoniazid by microplate alamar blue assay. The assay is classed as functional.

Structures are written as SMILES.

For `C=CCN(CC=C)NC(=O)c1cc(C23CC4CC(CC(C4)C2)C3)c2ccccc2n1`, in assay [1], the inhibition at 6.25 µg/mL was determined as 22%. The same compound had an IC50 in assay [2] of 55 µM.

In assay [1], `CCCN(CCC)NC(=O)c1cc(C23CC4CC(CC(C4)C2)C3)c2ccccc2n1` showed an inhibition at 6.25 µg/mL of 75%. For the same compound, in assay [2], the 50% inhibitory concentration (IC50) is 5.13 µM.

In assay [3], `O=C(NNC1CCCC1)c1cc(C23CC4CC(CC(C4)C2)C3)c2ccccc2n1` displayed an inhibition at 3.125 µg/mL of 99%. In addition, the IC50 in assay [2] is 0.0813 µM.

Turning to `O=C(NNCCCc1ccccc1)c1cc(C23CC4CC(CC(C4)C2)C3)c2ccccc2n1`, the inhibition at 6.25 µg/mL in assay [1] came to 50%. In assay [2], this compound gave an IC50 of 14.1 µM.

In assay [1], `CCCNNC(=O)c1cc(C23CC4CC(CC(C4)C2)C3)c2ccccc2n1` showed an inhibition at 6.25 µg/mL of 82%. This compound gave an IC50 in assay [2] of 3.8 µM.

On to `O=C(N/N=C/c1ccncc1)c1cc(C23CC4CC(CC(C4)C2)C3)c2ccccc2n1`, for which, in assay [1], the inhibition at 6.25 µg/mL is 70%. The compound also had an IC50 in assay [2] of 6.46 µM.

Consider `CCC(C)NNC(=O)c1cc(C23CC4CC(CC(C4)C2)C3)c2ccccc2n1` (stereo not drawn), for which, in assay [1], 6.25 µg/mL produced 97% inhibition. In assay [2], this compound gave an IC50 of 0.513 µM.

In the case of `O=C(NN(C(=O)c1ccccc1)C(=O)c1ccccc1)c1cc(C23CC4CC(CC(C4)C2)C3)c2ccccc2n1`, the inhibition at 6.25 µg/mL in assay [1] worked out at 51%. The compound further had an IC50 in assay [2] of 11.2 µM.

With `CC/C=N/NC(=O)c1cc(C23CC4CC(CC(C4)C2)C3)c2ccccc2n1`, in assay [1], testing at 6.25 µg/mL gave an inhibition of 69%. In assay [2], this compound had a concentration for half-maximal inhibition (IC50) of 7.76 µM.

On to `O=C(NNCCc1ccccc1)c1cc(C23CC4CC(CC(C4)C2)C3)c2ccccc2n1`, for which the inhibition at 6.25 µg/mL in assay [1] is 65%. In assay [2], the half-inhibitory concentration (IC50) was 7.94 µM.

For the compound `O=C(N/N=C/c1ccc[nH]1)c1cc(C23CC4CC(CC(C4)C2)C3)c2ccccc2n1`, testing at 3.125 µg/mL in assay [3] gave an inhibition of 99%. Besides, inhibition in assay [2] was half-maximal at 0.0794 µM (IC50).

For `O=C(N/N=C/c1c(F)c(F)c(F)c(F)c1F)c1cc(C23CC4CC(CC(C4)C2)C3)c2ccccc2n1`, the inhibition at 6.25 µg/mL in assay [1] came out at 16%. The IC50 in assay [2] was 66.1 µM.

For `O=C(N/N=C/c1ccnc2cc(Cl)ccc12)c1cc(C23CC4CC(CC(C4)C2)C3)c2ccccc2n1`, the inhibition at 6.25 µg/mL in assay [1] is 95%. For the same compound, half-maximal inhibition in assay [2] (IC50) was put at 0.661 µM.

For `COc1ccc(/C=N/NC(=O)c2cc(C34CC5CC(CC(C5)C3)C4)c3ccccc3n2)c2ccccc12`, in assay [1], the inhibition at 6.25 µg/mL came to 57%. The midpoint of inhibition in assay [2], the IC50, lay at 9.55 µM.

Regarding `O=C(NNc1cccc(F)c1)c1cc(C23CC4CC(CC(C4)C2)C3)c2ccccc2n1`, 3.125 µg/mL produced 99% inhibition in assay [3]. The same compound had a half-maximal inhibitory concentration (IC50) in assay [2] of 0.0759 µM.

Compound `O=C(N/N=C/c1cccs1)c1cc(C23CC4CC(CC(C4)C2)C3)c2ccccc2n1` registered an inhibition at 3.125 µg/mL in assay [3] of 99%. In assay [2], this compound had a half-inhibitory concentration (IC50) of 0.0759 µM.

In assay [1], `CCCCNNC(=O)c1cc(C23CC4CC(CC(C4)C2)C3)c2ccccc2n1` registered an inhibition at 6.25 µg/mL of 55%. In assay [2], the IC50 was 13.5 µM.

As to `CN(C)c1ccc(/C=N/NC(=O)c2cc(C34CC5CC(CC(C5)C3)C4)c3ccccc3n2)c2ccccc12`, the inhibition at 6.25 µg/mL in assay [1] came to 79%. In assay [2], this compound gave an IC50 of 3.31 µM.

As for `O=C(N/N=C/c1ccco1)c1cc(C23CC4CC(CC(C4)C2)C3)c2ccccc2n1`, the inhibition at 3.125 µg/mL in assay [3] worked out at 99%. Further, in assay [2], 0.0794 µM corresponded to half-maximal inhibition (IC50).

`CCCCN(CCCC)NC(=O)c1cc(C23CC4CC(CC(C4)C2)C3)c2ccccc2n1` showed an inhibition at 6.25 µg/mL in assay [1] of 64%. For the same compound, in assay [2], inhibition was half-maximal at 8.13 µM (IC50).

For the compound `O=C(N/N=C/c1ccc(O)cc1)c1cc(C23CC4CC(CC(C4)C2)C3)c2ccccc2n1`, the inhibition at 6.25 µg/mL in assay [1] stood at 73%. Half-maximal inhibition in assay [2] (IC50) was put at 5.37 µM.

`O=C(NNC1CCCCC1)c1cc(C23CC4CC(CC(C4)C2)C3)c2ccccc2n1` showed an inhibition at 3.125 µg/mL in assay [3] of 99%. Besides, inhibition in assay [2] was half-maximal at 0.0776 µM (IC50).

`O=C(NN(CCCc1ccccc1)CCCc1ccccc1)c1cc(C23CC4CC(CC(C4)C2)C3)c2ccccc2n1` returned an inhibition at 6.25 µg/mL in assay [1] of 45%. Also, the IC50 in assay [2] was 13.8 µM.

In turn, `NNC(=O)c1cc(C23CC4CC(CC(C4)C2)C3)c2ccccc2n1` yielded an inhibition at 6.25 µg/mL in assay [1] of 99%. The compound also gave a concentration for half-maximal inhibition (IC50) in assay [2] of 0.195 µM.

As to `O=C(NN(CCc1ccccc1)CCc1ccccc1)c1cc(C23CC4CC(CC(C4)C2)C3)c2ccccc2n1`, at 6.25 µg/mL the inhibition in assay [1] was 55%. Further, in assay [2], half-maximal inhibition (IC50) required 9.55 µM.

`CC(=O)NNC(=O)c1cc(C23CC4CC(CC(C4)C2)C3)c2ccccc2n1` returned an inhibition at 3.125 µg/mL in assay [3] of 99%. The compound also showed an IC50 in assay [2] of 0.0871 µM.

`CC(C)(C)/C=N/NC(=O)c1cc(C23CC4CC(CC(C4)C2)C3)c2ccccc2n1` displayed an inhibition at 6.25 µg/mL in assay [1] of 10%. For the same compound, the IC50 in assay [2] is 145 µM.

On to `O=C(NNc1ccc(F)cc1)c1cc(C23CC4CC(CC(C4)C2)C3)c2ccccc2n1`, for which, in assay [1], the inhibition at 6.25 µg/mL was determined as 93%. In addition, the IC50 in assay [2] is 1.12 µM.

Regarding `O=C(N/N=C/c1ccccn1)c1cc(C23CC4CC(CC(C4)C2)C3)c2ccccc2n1`, the inhibition at 6.25 µg/mL in assay [1] worked out at 84%. This compound had an IC50 in assay [2] of 2.88 µM.

Consider `O=C(N/N=C/c1cccnc1)c1cc(C23CC4CC(CC(C4)C2)C3)c2ccccc2n1`, for which the inhibition at 6.25 µg/mL in assay [1] was found to be 53%. The compound also gave an IC50 in assay [2] of 13.5 µM.

`O=C(N/N=C/c1ccnc2ccccc12)c1cc(C23CC4CC(CC(C4)C2)C3)c2ccccc2n1` had an inhibition at 3.125 µg/mL in assay [3] of 99%. Further, the IC50 in assay [2] was 0.0692 µM.

Compound `O=C(N/N=C/c1ccc(C(F)(F)F)cc1C(F)(F)F)c1cc(C23CC4CC(CC(C4)C2)C3)c2ccccc2n1` returned an inhibition at 6.25 µg/mL in assay [1] of 64%. For the same compound, half-maximal inhibition in assay [2] (IC50) was put at 6.46 µM.

`O=C(N/N=C/c1c2ccccc2cc2ccccc12)c1cc(C23CC4CC(CC(C4)C2)C3)c2ccccc2n1` displayed an inhibition at 6.25 µg/mL in assay [1] of 66%. This compound had an IC50 in assay [2] of 6.31 µM.

With `O=CNNC(=O)c1cc(C23CC4CC(CC(C4)C2)C3)c2ccccc2n1`, at 6.25 µg/mL the inhibition in assay [1] was 19%. This compound gave an IC50 in assay [2] of 75.9 µM.

As to `O=C(N/N=C/c1ccccc1)c1cc(C23CC4CC(CC(C4)C2)C3)c2ccccc2n1`, testing at 3.125 µg/mL in assay [3] gave an inhibition of 99%. Also, inhibition in assay [2] was half-maximal at 0.0776 µM (IC50).

In assay [1], `COc1ccc2ccccc2c1/C=N/NC(=O)c1cc(C23CC4CC(CC(C4)C2)C3)c2ccccc2n1` came in with an inhibition at 6.25 µg/mL of 69%. The compound also had an IC50 in assay [2] of 5.75 µM.

Take `CCCCCCNNC(=O)c1cc(C23CC4CC(CC(C4)C2)C3)c2ccccc2n1`: 6.25 µg/mL produced 77% inhibition in assay [1]. Also, the IC50 in assay [2] is 4.79 µM.

In assay [1], `COc1ccc(/C=N/NC(=O)c2cc(C34CC5CC(CC(C5)C3)C4)c3ccccc3n2)cc1` had an inhibition at 6.25 µg/mL of 20%. The IC50 in assay [2] was 56.2 µM.

`CCCCCCN(CCCCCC)NC(=O)c1cc(C23CC4CC(CC(C4)C2)C3)c2ccccc2n1` had an inhibition at 6.25 µg/mL in assay [1] of 65%. The midpoint of inhibition in assay [2], the IC50, lay at 7.24 µM.

`O=C(N/N=C/c1ccccc1Cl)c1cc(C23CC4CC(CC(C4)C2)C3)c2ccccc2n1` registered an inhibition at 1000 µg/mL in assay [4] of 99%. Further, half-maximal inhibition in assay [2] (IC50) was put at 0.0229 µM.

Compound `CC(C)/C=N/NC(=O)c1cc(C23CC4CC(CC(C4)C2)C3)c2ccccc2n1` gave an inhibition at 6.25 µg/mL in assay [1] of 63%. In addition, the IC50 in assay [2] was 9.77 µM.

In assay [1], `O=C(N/N=C/c1cccc(O)c1)c1cc(C23CC4CC(CC(C4)C2)C3)c2ccccc2n1` returned an inhibition at 6.25 µg/mL of 99%. In addition, the IC50 in assay [2] was 0.148 µM.

Turning to `O=C(NNc1ccccc1F)c1cc(C23CC4CC(CC(C4)C2)C3)c2ccccc2n1`, the inhibition at 6.25 µg/mL in assay [1] is 99%. It took 0.151 µM to reach half-maximal inhibition in assay [2] (IC50).

Compound `CC(C)NNC(=O)c1cc(C23CC4CC(CC(C4)C2)C3)c2ccccc2n1` yielded an inhibition at 6.25 µg/mL in assay [1] of 51%. The same compound showed an IC50 in assay [2] of 16.6 µM.
